Some test systems named below: DLD-1 colon; HOP-62 NSCLC; DMS 273 small cell lung; SF-295 CNS; UO-31 renal; XF 498 CNS; IGROV1 ovarian; KM20L2 colon; CAKI-1 renal; M19-MEL melanoma; EKVX NSCLC; DMS 114 small cell lung; MCF7 breast.
Common to all, as to assay: growth of human tumour cells (NCI), 48 h

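How tested: cells in 96-well plates exposed to compound for 48 hours at five concentrations. TGI is the concentration that stops growth completely.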

As for `COc1cc2c(cc1OC)C(C(CO)CO)N(CC(O)CCl)CC2` (configuration not stated), the TGI in the assay with DLD-1 colon, with HOP-62 NSCLC, in the assay on DMS 273 small cell lung, in the assay with SF-295 CNS, with UO-31 renal and with XF 498 CNS was above 100 µM in each case. Besides, the TGI in the assay with IGROV1 ovarian, with KM20L2 colon, with CAKI-1 renal, with M19-MEL melanoma and with EKVX NSCLC was above 100 µM in each case.

As to `O=C1Nc2ccccc2C12CCNC2Cc1ccccc1` (configuration not stated), the TGI in the assay with DLD-1 colon, in the assay on HOP-62 NSCLC, in the assay on DMS 273 small cell lung, in the assay with SF-295 CNS, in the assay with XF 498 CNS and in the assay with IGROV1 ovarian was above 100 µM throughout. Further, the TGI with DMS 114 small cell lung, in the assay with KM20L2 colon, in the assay with CAKI-1 renal, in the assay on M19-MEL melanoma and with EKVX NSCLC was above 100 µM throughout.

`COc1ccc(-c2cc(=O)c3cc4c(cc3[nH]2)OCO4)cc1OC`: the TGI in the assay with DLD-1 colon, in the assay on HOP-62 NSCLC, with DMS 273 small cell lung, with SF-295 CNS, in the assay on UO-31 renal and in the assay with XF 498 CNS was above 100 µM each time. Moreover, the TGI in the assay on IGROV1 ovarian, in the assay on DMS 114 small cell lung, in the assay on KM20L2 colon, in the assay with CAKI-1 renal, in the assay on M19-MEL melanoma and with EKVX NSCLC was above 100 µM each time.

On to `NC(CCCC(N)P(=O)(O)c1ccccc1)P(=O)(O)c1ccccc1` (configuration not stated), for which the TGI with DLD-1 colon, in the assay with HOP-62 NSCLC, with DMS 273 small cell lung, with SF-295 CNS, in the assay with UO-31 renal and in the assay on XF 498 CNS was above 261 µM each time. Besides, the TGI with IGROV1 ovarian, with DMS 114 small cell lung, in the assay on KM20L2 colon, in the assay on M19-MEL melanoma and in the assay on EKVX NSCLC was above 261 µM throughout.

With `Cc1nc(Nc2ccc(Cl)cc2)sc1C(=O)NNc1ccc([N+](=O)[O-])cc1[N+](=O)[O-]`, the TGI in the assay with DLD-1 colon amounted to 28 µM; in the assay with HOP-62 NSCLC it was 25.2 µM; in the assay on DMS 273 small cell lung it was 39.3 µM; in the assay on SF-295 CNS, 38.5 µM; with UO-31 renal it was 27.2 µM; with XF 498 CNS, 32.4 µM. For the same molecule, the TGI in the assay on IGROV1 ovarian worked out at 46.6 µM; with DMS 114 small cell lung it was 37.8 µM; in the assay with KM20L2 colon, 35.4 µM; in the assay with CAKI-1 renal, 44.1 µM; in the assay with M19-MEL melanoma, 41.7 µM; in the assay with EKVX NSCLC, 32.6 µM.

Take `Cc1cccc2c(=O)c([Se]c3coc4c(C)cccc4c3=O)coc12`: the TGI is 41.5 µM with DLD-1 colon; 32.9 µM with HOP-62 NSCLC; above 100 µM in the assay on DMS 273 small cell lung; 17.8 µM in the assay with SF-295 CNS; 28.7 µM with UO-31 renal; 34.8 µM in the assay with XF 498 CNS. Besides, the TGI in the assay with IGROV1 ovarian was 26.5 µM; with DMS 114 small cell lung it was 31.7 µM; in the assay on KM20L2 colon, 52.6 µM; with CAKI-1 renal, 48.4 µM; in the assay on M19-MEL melanoma, 30.3 µM; in the assay on EKVX NSCLC it was 33.3 µM.

Turning to `CCOC(=O)C1(C/C=C(/C)Cl)CCCC1=O` (configuration not stated), the TGI with DLD-1 colon, in the assay with HOP-62 NSCLC, in the assay with DMS 273 small cell lung, in the assay on SF-295 CNS, with UO-31 renal and with XF 498 CNS was above 100 µM throughout. The TGI with IGROV1 ovarian, in the assay with DMS 114 small cell lung, with KM20L2 colon, in the assay on CAKI-1 renal, with M19-MEL melanoma and in the assay on EKVX NSCLC was above 100 µM in each case.

Consider `CN1CCCC2(CCCc3ccccc32)C1` (configuration not stated), for which the TGI in the assay on DLD-1 colon, with HOP-62 NSCLC, in the assay with DMS 273 small cell lung, in the assay on SF-295 CNS, in the assay on UO-31 renal and with IGROV1 ovarian was above 100 µM in each case. For the same molecule, the TGI in the assay on DMS 114 small cell lung, in the assay on KM20L2 colon, in the assay with CAKI-1 renal, in the assay on M19-MEL melanoma and with EKVX NSCLC was above 100 µM throughout.

`CCCN(CCCC(NC(C)=O)C(=O)NCc1ccccc1)C(=O)N(CCCl)N=O` (configuration not stated): the TGI in the assay with DLD-1 colon is 43.1 µM; with HOP-62 NSCLC it was 19.8 µM; with DMS 273 small cell lung it was 24.6 µM; in the assay on SF-295 CNS, 43.3 µM; in the assay with UO-31 renal, 50 µM; with XF 498 CNS it was 30.3 µM. The TGI in the assay with IGROV1 ovarian is 57.3 µM; with DMS 114 small cell lung it was 65.7 µM; in the assay on MCF7 breast, above 100 µM; in the assay on KM20L2 colon it was 46.7 µM; in the assay on CAKI-1 renal it was 62.4 µM; in the assay on M19-MEL melanoma, 28.1 µM. The same molecule came in with a TGI in the assay on EKVX NSCLC of 59 µM.

As to `C[C@]12CCC(=O)C=C1CC[C@@H]1[C@@H]2[C@@H](O)C[C@@]2(C)[C@H]1CC[C@]2(O)C(=O)COC(=O)COCC(=O)O`, the TGI in the assay on DLD-1 colon, in the assay with HOP-62 NSCLC, in the assay with DMS 273 small cell lung, with SF-295 CNS, in the assay on UO-31 renal and in the assay with XF 498 CNS was above 100 µM in each case. Besides, the TGI in the assay on IGROV1 ovarian, with DMS 114 small cell lung, in the assay with KM20L2 colon, in the assay on CAKI-1 renal, with M19-MEL melanoma and in the assay on EKVX NSCLC was above 100 µM in each case.

(Values after PubChem BioAssay (NCI).)
